Results on 17 compounds are retold here after patent publication US20130040893A1, “TREATMENT OF PROLIFERATIVE DISORDERS” (TETRALOGIC PHARMACEUTICALS CORPORATION, priority 2005, published 2013).

Each structure is given as a SMILES string. Read-outs that look alike come from different tables or passages of the source. Residues, ends and D or L forms follow the SMILES beside them. Bounds are passed on as bounds.

Assay [1] addresses BIR-3 domain of cIAP-1 (Homo sapiens, UniProt Q13490). Description: Fluorescence polarization binding assay, cIAP-1 BIR-3 domain.
Description: (§5) IC50 values (Table I) were determined from the plot using nonlinear least-squares analysis using GraphPad Prism.
(§6) We have utilized the specificity of this IAP binding motif in a fluorescence polarization assay to measure the binding affinities for cIAP-1 Antagonists. The fluorescence polarization assay consists of FP peptide {Sri: What is “FP Peptide”?}, and the recombinant BIR3 domain of the XIAP protein. The FP peptide and mimics of cIAP-1 N-terminus compete for binding to the BIR3 protein. […] If a peptide, peptidomimetic, or other small molecule being tested is a competitor, then it succeeds in displacing the FP peptide, resulting in a low mP value. Molecules that compete with the FP peptide can be titrated and IC50 values determined (GraphPad Prism nonlinear regression curve-fitting program) by plotting mp value as the direct measure of fraction bound vs. the log of the compound concentration.
For another assay, the target named is BIR-3 domain of XIAP (Homo sapiens, UniProt P98170). As to the kind of experiment: Fluorescence polarization binding assay, XIAP BIR-3 domain.
Another assay relates to SK-OV-3 cells. As to the kind of experiment: MTT cell growth assay in SK-OV-3 ovarian cancer cells. The format is cell-based. The conditions noted are these: Homo sapiens. The protocol: The MTT assay is an example of an assay that has been used for measuring cell growth as previously described (Hansen, M. B., Nielsen, S. E., and Berg, K. (1989) J. Immunol. Methods 119, 203-210) and incorporated herein by reference in its entirety. Briefly, SK-OV-3 cells were seeded in 96-well plates in McCoy's medium containing 10% fetal bovine serum […] (10,000 per well) and incubated overnight at 37° C.
μM) and the plates were incubated at 37° C. for an additional 72 hrs. This incubation time was optimal for measuring inhibitory effects of different analogs. 50 microliters of 5 mg/mL MTT reagent to each well was added and the plates were incubated at 37° C. for 3 hours. At the end of incubation period, 50 microliters of DMSO was added to each well to dissolve cells and the optical density (OD) of the wells was measured with a microplate reader (Victor^2 1420, Wallac, Finland) at 535 nm. Cell survival (CS) was calculated by the following equation:
CS=(OD treated well/mean OD control wells)×100%.
The EC50 (Table 1), defined as the drug concentration that results in 50% CS, was derived by calculating the point where the dose-response curve crosses the 50% CS point using GraphPad Prism.

Assay [2] relates to BIR-3 domain of cIAP-1. As to the kind of experiment: Fluorescence polarization binding assay, cIAP-1 BIR-3 domain. The conditions noted are these: cIAP-1 relative to XIAP.
Description: as §5, §6
The test system of a further assay is OVCAR-3 cell line. As to the kind of experiment: Synergistic toxicity with SN-38, MTT matrix. The format is cell-based. An excerpt:
MTT assays were setup by testing a matrix of concentrations of both drugs.

A further assay addresses T1, XIAP (Homo sapiens, UniProt P98170).
T1 construct: SKOV3 cells were passed into six 60×15 mm tissue culture dishes; endogenous in cells; host or cells: SKOV3 (SK-OV-3) cells
As to the kind of experiment: Western blot of XIAP degradation in SKOV3 cells. Format: cell-based. The conditions noted are these: SK-OV-3 cells, 20 hrs, absence of bortezomib. The protocol:
(§1) SKOV3 cells were passed into six 60×15 mm tissue culture dishes 2 days before experiment. Cells appeared to be ˜80% confluent at time of harvest. […] A 10-fold dilution of this solution into medium A gave the 100 nM working solution.
(§2) Western blot analysis was carried out using standard technique. Briefly, cells were lysed using the MPER mammalian cell lysis solution (Bio-Rad #78503) to which 10 μl/mL of a 100× solution of HALT protease inhibitor cocktail (Bio-Rad #78410) has been added. To each dish of cells, 200 μl of the lysis solution plus protease inhibitors is added. The cells in each dish are scraped using a cell scraper and allowed to incubate with the reagent for 10 minutes. The lysates were transferred to pre-chilled microfuge tubes and spun for 20 minutes at 15,000×g at 4° C. The supernatant was transferred to a clean, chilled microfuge tube.
(§3) Next, the total protein content of the lysates was determined using the BCA Protein Assay according to the manufacturer's protocol and using interpolation from a standard curve generated with BSA.
(§4) The samples were normalized for protein content during preparation for gel electrophoresis. The samples were prepared using 2× Laemmli Sample buffer to which 200 mM DTT was added. […]

The next assay has as its target T2, cIAP-1 (Homo sapiens, UniProt Q13490).
T2 construct: endogenous in cells; host or cells: SKOV3 (SK-OV-3) cells
Description: Western blot of cIAP-1 degradation in SKOV3 cells. Format: cell-based. Conditions: SK-OV-3 cells, 20 hrs, absence of bortezomib. The protocol:
as §1, §2, §3, §4

Where [3] appears, read: SK-OV-3 cells, 72 hrs, read-out: MTT EC50.

Sequence of BIR-3 domain of XIAP (P98170 241-356 limits assumed): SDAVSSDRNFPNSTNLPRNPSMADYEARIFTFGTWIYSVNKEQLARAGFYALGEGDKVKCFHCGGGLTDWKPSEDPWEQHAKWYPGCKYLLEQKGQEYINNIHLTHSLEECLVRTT
Sequence of BIR-3 domain of cIAP-1 (Homo sapiens, UniProt Q13490) (Q13490 266-352 limits assumed): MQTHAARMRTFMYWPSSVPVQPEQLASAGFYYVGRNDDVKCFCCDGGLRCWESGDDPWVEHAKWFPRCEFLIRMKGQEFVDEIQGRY
T2 sequence (Q13490 whole entry): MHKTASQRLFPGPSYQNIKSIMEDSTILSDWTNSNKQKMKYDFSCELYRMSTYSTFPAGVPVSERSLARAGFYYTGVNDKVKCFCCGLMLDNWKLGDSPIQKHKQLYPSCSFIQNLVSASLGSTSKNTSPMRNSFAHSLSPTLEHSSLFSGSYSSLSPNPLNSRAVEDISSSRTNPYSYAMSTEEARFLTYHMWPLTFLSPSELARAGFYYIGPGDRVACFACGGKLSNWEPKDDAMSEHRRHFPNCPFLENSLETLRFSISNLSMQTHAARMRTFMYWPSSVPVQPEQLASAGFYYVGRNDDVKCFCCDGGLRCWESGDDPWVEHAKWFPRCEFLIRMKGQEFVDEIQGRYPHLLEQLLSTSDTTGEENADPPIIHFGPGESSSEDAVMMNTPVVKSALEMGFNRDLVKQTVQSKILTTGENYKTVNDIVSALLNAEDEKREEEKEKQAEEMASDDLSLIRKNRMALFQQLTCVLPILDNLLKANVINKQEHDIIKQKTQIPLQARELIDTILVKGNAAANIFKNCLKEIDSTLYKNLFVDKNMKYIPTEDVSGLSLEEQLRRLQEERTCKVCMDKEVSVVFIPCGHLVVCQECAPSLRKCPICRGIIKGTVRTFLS
T1 sequence (P98170 whole entry): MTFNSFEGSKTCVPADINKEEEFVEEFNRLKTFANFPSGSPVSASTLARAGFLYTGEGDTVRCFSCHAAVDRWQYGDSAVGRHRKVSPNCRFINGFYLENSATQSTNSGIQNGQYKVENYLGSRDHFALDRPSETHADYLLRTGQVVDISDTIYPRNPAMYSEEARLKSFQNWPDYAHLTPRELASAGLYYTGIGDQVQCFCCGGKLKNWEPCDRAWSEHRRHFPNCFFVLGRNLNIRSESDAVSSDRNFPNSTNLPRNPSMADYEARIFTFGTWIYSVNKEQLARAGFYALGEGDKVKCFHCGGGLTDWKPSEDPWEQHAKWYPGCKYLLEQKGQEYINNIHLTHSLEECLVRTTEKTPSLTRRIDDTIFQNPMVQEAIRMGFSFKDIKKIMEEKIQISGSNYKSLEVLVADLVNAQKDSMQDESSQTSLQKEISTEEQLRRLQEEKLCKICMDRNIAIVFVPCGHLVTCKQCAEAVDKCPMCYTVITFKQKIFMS
Description for BIR-3 domain of XIAP: as §5, §6

On BIR-3 domain of cIAP-1 [1], `CC(C)[C@H](NC(=O)[C@H](C)N)C(=O)N1CCC[C@H]1C(=O)N[C@@H](Cc1ccccc1)C(=O)O` [AVPF, reference compound] (H-AVPF-OH) had an IC50 of 10 to 100 nM.
For the compound `CCC(C)[C@H](NC(=O)[C@H](C)NC)C(=O)N1CCC[C@H]1Cc1c2n(c3ccc(F)cc13)CCn1c-2c(C[C@@H]2CCCN2C(=O)[C@@H](NC(=O)[C@H](C)NC)C(C)CC)c2cc(F)ccc21` (stereo partly shown) [A], the IC50 was 10 to 100 nM at BIR-3 domain of XIAP and under 10 nM at BIR-3 domain of cIAP-1 [1]. In addition, the EC50 with SK-OV-3 cells (setting [3]) is under 10 nM.
With `CN[C@@H](C)C(=O)N[C@H](C(=O)N1CCC[C@H]1Cc1c[nH]c2ccc(C)cc12)[C@@H](C)O` [C], the IC50 on BIR-3 domain of XIAP is over 100 nM; at BIR-3 domain of cIAP-1 [1], under 10 nM. Further, the EC50 in the assay with SK-OV-3 cells (setting [3]) is under 10 nM.
`CC(C)[C@H](NC(=O)CN)C(=O)N1C[C@@H](Oc2ccccc2)C[C@H]1Cc1coc2ccccc12` [Compound I]: the IC50 at BIR-3 domain of XIAP was over 100 nM; on BIR-3 domain of XIAP (read-out: IC50 (XIAP), Table 10), over 100 nM; on BIR-3 domain of cIAP-1 [1], under 10 nM; at BIR-3 domain of cIAP-1 [1] (read-out: IC50 (cIAP-1), Table 10) it was under 10 nM. The “binding to cIAP-1 more tightly than to XIAP” value with BIR-3 domain of cIAP-1 [2] was found to be 117 fold. In addition, the EC50 in the assay on SK-OV-3 cells (SK-OV-3, Table 10, read-out: MTT (SKOV-3)) was under 10 nM; with SK-OV-3 cells (setting [3]), under 10 nM. Moreover, in the assay on OVCAR-3 cell line, the “synergistic toxicity with SN-38 (synergistic volume)” value is listed as “comparable”.
In the case of `CN[C@@H](C)C(=O)N[C@H](C(=O)N1C[C@@H](OC(C)=O)C[C@H]1Cc1c[nH]c2ccccc12)[C@@H](C)O` [D], the IC50 at BIR-3 domain of XIAP and on BIR-3 domain of cIAP-1 [1] was over 1000 nM throughout.
As to `CN[C@@H](C)C(=O)N[C@H](C(=O)N1C[C@@H](OC(C)=O)C[C@H]1Cc1c[nH]c2ccccc12)C(C)(C)C` [E], the IC50 is over 100 nM on BIR-3 domain of XIAP and under 10 nM on BIR-3 domain of cIAP-1 [1]. Besides, the EC50 with SK-OV-3 cells (setting [3]) was in the range of 10 to 100 nM.
With `CN[C@@H](C)C(=O)N[C@H](C(=O)N1C[C@@H](OC(C)=O)C[C@H]1Cc1c[nH]c2ccccc12)C(C)C` [F], the IC50 on BIR-3 domain of XIAP is 10 to 100 nM; at BIR-3 domain of cIAP-1 [1] it was under 10 nM. For the same compound, the EC50 with SK-OV-3 cells (setting [3]) was 10 to 100 nM.
In the case of `CN[C@@H](C)C(=O)N[C@H](C(=O)N1CCC[C@H]1Cc1c[nH]c2ccc(C)cc12)C(C)C` [G], the values for the IC50 at BIR-3 domain of XIAP and on BIR-3 domain of cIAP-1 [1] were 10 to 100 nM and under 10 nM, respectively. Besides, in the assay on SK-OV-3 cells (setting [3]), the EC50 is 10 to 100 nM.
Turning to `CC(C)[C@H](NC(=O)[C@H](C)N)C(=O)N1CCC[C@H]1Cc1c(-c2ccc(-c3oc4ccccc4c3C[C@@H]3CCCN3C(=O)[C@@H](NC(=O)[C@H](C)N)C(C)C)cc2)[nH]c2ccccc12` [J], the half-inhibitory concentration (IC50) at BIR-3 domain of XIAP and on BIR-3 domain of cIAP-1 [1] was over 100 nM in each case. In addition, the EC50 in the assay with SK-OV-3 cells (setting [3]) is over 100 nM.
Turning to `CN[C@@H](C)C(=O)N[C@H](C(=O)N1CCC[C@H]1Cc1cn(CCOCCn2cc(C[C@@H]3CCCN3C(=O)[C@@H](NC(=O)[C@H](C)NC)C3CCCCC3)c3ccccc32)c2ccccc12)C1CCCCC1` [K], the IC50 was over 100 nM on BIR-3 domain of XIAP and 10 to 100 nM at BIR-3 domain of cIAP-1 [1]. Also, the EC50 in the assay with SK-OV-3 cells (setting [3]) is 10 to 100 nM.
Turning to `CC(C)[C@@H](NC(=O)[C@@H](C)N)C(=O)N1CCC[C@@H]1Cc1c(-c2ccc(-c3oc4ccccc4c3C[C@H]3CCCN3C(=O)[C@H](NC(=O)[C@@H](C)N)C(C)C)cc2)[nH]c2ccccc12` [L], the IC50 at BIR-3 domain of XIAP was over 100 nM; on BIR-3 domain of cIAP-1 [1] it was 10 to 100 nM. Also, the EC50 in the assay on SK-OV-3 cells (setting [3]) was under 10 nM.
Taken in the same sequence, the figures for `CN[C@@H](C)C(=O)N[C@H](C(=O)N1C[C@@H](O)C[C@H]1Cc1c(-c2ccc(-c3[nH]c4ccccc4c3C[C@@H]3C[C@H](O)CN3C(=O)[C@@H](NC(=O)[C@H](C)NC)C(C)(C)C)cc2)[nH]c2ccccc12)C(C)(C)C` [M] were 10 to 100 nM, 10 to 100 nM and 10 to 100 nM.
Regarding `CN[C@@H](C)C(=O)N[C@H](C(=O)N1CCC[C@H]1Cc1c(-c2ccc(-c3c(C[C@@H]4CCCN4C(=O)[C@@H](NC(=O)[C@H](C)NC)C(C)(C)C)c4ccc(F)cc4n3CCO)cc2)n(CCO)c2cc(F)ccc12)C(C)(C)C` [N], the IC50 at BIR-3 domain of XIAP and on BIR-3 domain of cIAP-1 [1] was 10 to 100 nM throughout. For the same compound, in the assay with SK-OV-3 cells (setting [3]), the EC50 was under 10 nM.
`CN[C@@H](C)C(=O)N[C@H](C(=O)N1CCC[C@H]1Cc1c(-c2ccc(-c3c(C[C@@H]4CCCN4C(=O)[C@@H](NC(=O)[C@H](C)NC)C(C)C)c4ccc(F)cc4n3CCOC(C)=O)cc2)n(CCOC(C)=O)c2cc(F)ccc12)C(C)C` [O]: the IC50 at BIR-3 domain of XIAP and at BIR-3 domain of cIAP-1 [1] was over 1000 nM in each case. In addition, in the assay with SK-OV-3 cells (setting [3]), the EC50 is over 1000 nM.
For `CN[C@@H](C)C(=O)N[C@H](C(=O)N1CCC[C@H]1Cc1c(-c2ccc(C(=O)OC)cc2)n(CCOCCOCCOC)c2cc(F)ccc12)C(C)(C)C` [P], the IC50 at BIR-3 domain of XIAP and on BIR-3 domain of cIAP-1 [1] was 10 to 100 nM in each case. Also, in the assay on SK-OV-3 cells (setting [3]), the EC50 was under 10 nM.
As for `CN[C@@H](C)C(=O)N[C@H](C(=O)N1CCC[C@H]1Cc1c(-c2ccc(F)cc2)n(CCOCCOCCOC)c2cc(F)ccc12)C(C)(C)C` [Q], the “XIAP protein by western blot” value on XIAP is recorded as “complete disappearance”. The IC50 at BIR-3 domain of XIAP and on BIR-3 domain of cIAP-1 [1] was 10 to 100 nM each time. Moreover, the EC50 with SK-OV-3 cells (setting [3]) was under 10 nM. Further, the “cIAP-1 protein by western blot” value at cIAP-1 is reported as “complete disappearance”.
In the case of `CN[C@@H](C)C(=O)N[C@H](C(=O)N1CCC[C@H]1Cc1c(-c2ccc(N3CCOCC3)cc2)n(CCOCCOCCOC)c2cc(F)ccc12)C(C)(C)C` [R], the concentration for half-maximal inhibition (IC50) at BIR-3 domain of XIAP and on BIR-3 domain of cIAP-1 [1] was 10 to 100 nM in each case. In the assay with SK-OV-3 cells (setting [3]), the EC50 lay in the range of 10 to 100 nM.
